Data as given in publication PMC10386914 (Clinical Pharmacokinetics, 2023).

Assay: Grade ≥3 toxicity
Type: in vivo, human
Conditions: standard dose; study period

Cc1ccc(Nc2nccc(N(C)c3ccc4c(C)n(C)nc4c3)n2)cc1S(N)(=O)=O [Pazopanib]
patients with grade ≥3 adverse events, wildtype patients: 29%
